Assay results from PubChem BioAssay (NCI).
Where “and” joins values, the source holds several entries; their conditions need not be identical. Equal values may be shown once.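 A five-concentration, 48-hour dose response in 96-well plates underlies each endpoint, interpolated linearly between surrounding concentrations. GI50 is the concentration that inhibits growth by half. TGI is the concentration that stops growth completely.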

How the values were obtained:
Assay in all cases: growth of human tumour cells (NCI), 48 h
HL-60(TB) leukemia = system: HL-60(TB) leukemia
IGROV1 ovarian = system: IGROV1 ovarian
K-562 leukemia = system: K-562 leukemia
NCI-H226 lung = system: NCI-H226 lung
NCI-H23 lung = system: NCI-H23 lung
SK-MEL-5 melanoma = system: SK-MEL-5 melanoma
SK-OV-3 ovarian = system: SK-OV-3 ovarian
SN12C renal = system: SN12C renal
SR leukemia = system: SR leukemia
UO-31 renal = system: UO-31 renal

Structure (SMILES) | TGI (HL-60(TB) leukemia) | TGI (IGROV1 ovarian) | TGI (K-562 leukemia) | TGI (NCI-H226 lung) | TGI (NCI-H23 lung) | TGI (SK-MEL-5 melanoma) | TGI (SK-OV-3 ovarian) | TGI (SN12C renal) | TGI (SR leukemia) | TGI (UO-31 renal) | GI50 (HL-60(TB) leukemia) | GI50 (IGROV1 ovarian) | GI50 (K-562 leukemia) | GI50 (NCI-H226 lung) | GI50 (NCI-H23 lung) | GI50 (SK-MEL-5 melanoma) | GI50 (SK-OV-3 ovarian) | GI50 (SN12C renal) | GI50 (SR leukemia) | GI50 (UO-31 renal)
CCOC(=O)c1c(/C=N\Nc2ccccc2)nc2ccccc2c1-c1ccccc1 | 50.1 µM | > 100 µM | > 100 µM | > 100 µM | > 100 µM | 85.6 µM | > 100 µM | > 100 µM | 61.4 µM | 98.7 µM |  |  |  |  |  |  |  |  |  | 
O=C1COc2c(CCNCCN(C(=O)CCNCCc3ccc(Cl)c(Cl)c3)C3CCCCC3)ccc(O)c2N1 | 32.1 µM | 30.1 µM | 34.1 µM | 35.9 µM | 33.9 µM | 29.4 µM | 30.8 µM | 30.3 µM | 33.7 µM | 31 µM | 14.2 µM | 15 µM | 16.2 µM | 17.7 µM | 18.1 µM | 15.6 µM | 16 µM | 14.7 µM | 12.2 µM | 16 µM
Nc1ccc(N)c2c1C(=O)c1cccc([N+](=O)[O-])c1C2=O | > 41.1 µM | > 100 µM | > 100 µM |  | 2.73 µM | 3.76 µM | > 100 µM | > 100 µM | > 20.6 µM | > 22.6 µM | 3.65 µM | 3.92 µM | 5.45 µM | 0.312 µM | 0.44 µM | 1.43 µM | 3.43 µM | 2.48 µM | 0.529 µM | 2.68 µM
N#Cc1c(N/N=C/c2c(Cl)cccc2Cl)nc(N)nc1N1CCCC1 | 7.04 µM | 97.3 µM | 6.75 µM | > 100 µM | 9.11 µM | 7.11 µM | > 100 µM | > 100 µM | 3.03 µM | > 100 µM | 3.4 µM | 0.783 µM | 2.87 µM | 11.8 µM | 1.16 µM | 0.722 µM | 5.12 µM | 4.68 µM | 0.795 µM | 5.36 µM
c1csc(-c2[nH]nc3c2CCc2ccccc2-3)c1 | 47.3 µM | 73 µM | 68.6 µM | 42.2 µM | 42.9 µM | 26 µM | 65.6 µM | 30.2 µM | 66.3 µM | 34.9 µM | 20.5 µM | 19.4 µM | 22 µM | 13.5 µM | 16.1 µM | 13 µM | 24.6 µM | 14.8 µM | 21.9 µM | 6.4 µM
Cc1c(N)nc(C2CC(=O)N2CC(N)C(N)=O)nc1C(=O)NC(C(=O)NC(C)C(O)C(C)C(=O)NC(C(=O)NCCc1nc(-c2nc(C(=O)NCCNCC(C)O)cs2)cs1)C(C)O)C(OC1OC(CO)C(O)C(O)C1OC1OC(CO)C(O)C(OC(N)=O)C1O)c1cnc[nH]1 (stereo not drawn) | 50 µM and > 37.4 µM | 50 µM and > 100 µM | 50 µM and > 100 µM | 0.261 µM | 16.3 µM and 8.81 µM | 11.6 µM and 17.9 µM | 50 µM and > 32.9 µM | 36.4 µM and 27 µM | 50 µM | 17 µM and 21.6 µM | 24.4 µM | 13.4 µM | 35.9 µM |  | 1.06 µM | 0.644 µM | 10.6 µM | 5.33 µM | 0.005 µM | 0.974 µM
COC(=O)/C(=C/c1ccc(OC)cc1)c1cc(OC)c(OC)c(OC)c1 | 3.06 µM | > 100 µM | > 58.4 µM | 42.3 µM | 26.8 µM | > 39.3 µM | 40.4 µM | > 100 µM | > 19.6 µM | 74.9 µM |  |  |  |  |  |  |  |  |  | 
